Tested on: green mold (P. digitatum)
Test: In vivo efficacy test on inoculated fruit, green mold incidence (FIG. 1)
Set-up: species or system Penicillium digitatum
Settings: fruit puncture-inoculated with P. digitatum, imazalil at 0.1%
Protocol: In vivo efficacy tests for the formulation of Table 7 were carried out on Fallglo tangerines, pineapples, and Valencia oranges inoculated with Penicillium digtatum using a puncture method, in which the fruit was punctured with the tip of a 1 mm×1 mm probe that had been dipped into the inoculum solution (1×10^6 fungal spores/ml). The fruit was then subject to either a dip treatment procedure or a packingline dip treatment procedure twenty to twenty-four hours after inoculation. The dip treatment procedure involved dipping the inoculated fruit into the composition for one (1) minute. The packingline dip treatment procedure involved treating the fruit with suspensions or wax containing the produce-treatment composition using a non-recovery drip system through a simulated commercial packing line. Fruits were rotated on brush beds and contacted with chemicals for 15 to 20 seconds, and then dried at 50-54° C. for 1-2 minutes. In both procedures, the treated fruit was incubated at 21° C. with 95% relative humidity. FIG. 1 depicts a bar graph reporting the efficacy of the produce-treatment composition of Table 7 to green mold (P. digitatum), and comparing the results to those of a control (distilled water) and 0.1% imazalil. The inventive formulation reduced green-mold incidences to […], relative to untreated produce. […]

Question: Which results are given for C=CCOC(Cn1ccnc1)c1ccc(Cl)cc1Cl (centres unmarked) [imazalil]?
Answer: green-mold incidences (treated 20-24 h later, incubated at 21° C., 95% RH): 51%; reduction of green-mold incidences (relative to untreated produce): 49%

From patent US20070280919A1, “Produce-treatment composition and method for treatment of fresh produce” (priority 2006, published 2007)
